Usually EC50 stands for the midpoint of the concentration-response curve. The term IC50 denotes the concentration that gives 50% inhibition. A lower IC50 goes with inhibition by little substance.

SMILES strings stand for the structures. Activity calls are given as the source filed them.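 The calls were made as follows: active = compounds giving half or more protection of infected cells from virus-caused growth loss, again on retest; inactive = the rest.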 Where a SMILES comes first, the peptide text is derived from it. A value given as a limit tells only on which side of the number the result lay.

We go through 72 compounds from PubChem BioAssay AID179 (DTP/NCI, 2004).

The subject of the assay is CEM cells HIV-1 protection, formazan growth assay. In words: NCI AIDS Antiviral Assay. The settings on record: for IC50: measured here: growth of uninfected CEM cells. Put shortly: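 Protection of CEM cells against HIV-1 was scored from cell growth (soluble formazan) across five concentrations, with parallel uninfected cells. Lack of protection may reflect toxicity.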

For `CSc1c(C#N)c(O)n(-c2ccc(C)cc2)c(=O)c1C#N`, the EC50 is greater than 115 µM and the 50% inhibitory concentration (IC50) was determined as 102 µM. The matching figures for `O=C(Nc1nccs1)Nc1cc(C(F)(F)F)ccc1Cl`: greater than 200 µM and greater than 200 µM. The matching figures for `COC(=O)CCC(=O)CC(=O)C(=O)Nc1c(Cl)cc([N+](=O)[O-])cc1Cl`: greater than 18.2 µM and greater than 18.2 µM. On the same counts, the results for `CC(=O)c1ccc(-c2oc(-c3ccccc3)cc2-c2ccc3c(c2)OCO3)s1` are greater than 200 µM and 22.9 µM. `Nc1[nH]c(=O)ncc1F`: the EC50 is greater than 200 µM and the IC50 was greater than 200 µM. In the case of `COC(=O)C(CCC(=O)O)N1C(=O)c2ccccc2C1=O` (stereo unspecified), the EC50 was greater than 200 µM and the IC50 was greater than 200 µM. As for `Cc1noc(C)c1CCCOC1COc2ccccc2OCCOCCOc2ccccc2OC1`, the EC50 was greater than 100 µM and the 50% inhibitory concentration (IC50) was greater than 100 µM. Take `CN1CC=C(OP(=O)(NCc2ccccc2)N(CCCl)CCCl)CC1` (stereo unspecified): the EC50 was greater than 200 µM and the IC50 worked out at 135 µM. For the compound `COc1ccc([C@H]2C=[N+]([O-])O[C@H](OC3CCCC3)[C@@H]2OC(C)=O)cc1OC`, the EC50 was greater than 200 µM and the IC50 was found to be 11.2 µM. For `CCCCOC(=O)N[C@H]1CCc2cc(OC)c(OC)c(OC)c2-c2ccc(SC)c(=O)cc21`, the EC50 is greater than 0.2 µM and the IC50 was 0.00407 µM. The matching figures for `CNS(=O)(=O)c1c(NC=O)ncn1C`: greater than 1150 µM and greater than 1150 µM. Regarding `N/N=C(\Cc1ccccc1)NN=C(N)N`, the EC50 is greater than 457 µM and the IC50 came to 389 µM.

On to `c1ccc(-c2nc3sc(-c4ccccc4)nc3s2)cc1`, for which the EC50 was greater than 200 µM and the IC50 is greater than 200 µM. With `CC1CN(C2C=CC(=O)CC2)C(=O)NC1=O` (stereo unspecified), the EC50 is greater than 1120 µM and the half-maximal inhibitory concentration (IC50) amounted to 7.76 µM. As for `COC(=O)C1Cc2c(C)cccc2C1=O` (stereo unspecified), the EC50 is greater than 200 µM and the IC50 was 110 µM.

Take `Cc1ccc(NC(=O)/C(Cc2cc(=O)oc3cc(O)ccc23)=N\NC(C)(C)C)cc1C`: the EC50 is greater than 17 µM and the concentration for half-maximal inhibition (IC50) was greater than 17 µM. As for `COC(=O)C(Cn1cnc2c(Cl)nc(N)nc21)P(=O)(OC)OC` (stereo unspecified), the EC50 is greater than 692 µM and the IC50 is 37.2 µM.

`C(=N\Nc1nnc2c(n1)[nH]c1ccccc12)/c1cccnc1`: the EC50 is greater than 200 µM and the IC50 was greater than 200 µM.

`COC1=CC(=O)C(=O)c2c(C)ccnc21`: the result was inactive. Take `C#CC1(O)CC[C@H]2[C@@H]3CCC4=CCCC[C@@H]4[C@H]3CC[C@@]21C` (stereo partly specified): the EC50 was greater than 200 µM and the IC50 came out at 30.9 µM. Regarding `CN(CCN1C(=O)c2cccc3cc(N)cc(c23)C1=O)CCN1C(=O)c2cccc3cc(N)cc(c23)C1=O`, the EC50 was greater than 21.9 µM and the IC50 was determined as 0.155 µM. `CCOP(=O)(OCC)Oc1ccc(Sc2ccc(OP(=O)(OCC)OCC)cc2)cc1`: the EC50 is greater than 200 µM and the IC50 came out at 85.1 µM. On the same counts, the results for `O/N=C/c1cc(I)cc(I)c1O` are greater than 66.1 µM and 33.9 µM. On to `CN(C)c1nc(=NCc2ccncc2)ss1`, for which the EC50 is greater than 200 µM and the IC50 worked out at 10.7 µM. With `Nc1nc2ccc(Sc3ccc4nc(N)[nH]c(=O)c4c3)cc2c(=O)[nH]1`, the EC50 is greater than 100 µM and the IC50 was greater than 100 µM.

For `CC(=O)OCC(=O)[C@@]1(O)CC[C@H]2[C@@H]3C[C@H](C)C4=CC(=O)C=C[C@]4(C)[C@@]3(F)[C@@H](O)C[C@@]21C`, the outcome was inactive.

Regarding `CC1(C)OC(=O)C(C)(C)C(=O)O1`, the result was inactive.

As for `O=C(NNC(=O)c1ccc([N+](=O)[O-])cc1)c1ccc([N+](=O)[O-])cc1`, the EC50 was greater than 200 µM and the IC50 is greater than 200 µM. `Cc1nc(-c2cccnc2)sc1C(=O)/C=C/c1ccc(Cl)cc1Cl`: the EC50 is greater than 19.1 µM and the IC50 is greater than 19.1 µM.

For the compound `O=c1c2ccccc2nc(-c2ccccc2)n1NC(=S)Nc1ccc(Cl)cc1[N+](=O)[O-]`, the EC50 is greater than 15.8 µM and the IC50 is greater than 15.8 µM. `CCCCOC(=O)/C(CC(=O)C=C(C)C)=N\NS(=O)(=O)c1ccc(C)cc1`: the EC50 is greater than 174 µM and the IC50 is greater than 174 µM. As for `CC(C)CCCC(C)C1CCC2[C@@H]3CCC4C[C@@H](CC=C(c5cc(Cl)c(O)c(C(=O)O)c5)c5cc(Cl)c(O)c(C(=O)O)c5)CC[C@]4(C)C3CC[C@]12C` (stereo partly specified), the EC50 was 21.4 µM and the IC50 amounted to 316 µM. As to `O=P1(O)c2ccccc2CSCc2ccccc21`, the EC50 was greater than 324 µM and the IC50 is greater than 324 µM. On to `Cc1nc2sccn2c1C(N)=O`, for which the EC50 was greater than 200 µM and the IC50 was greater than 200 µM. `CCC(C#N)NCc1cccc(CNC(C#N)CC)c1` (stereo unspecified): the EC50 is greater than 200 µM and the IC50 is greater than 200 µM. With `Cc1cc(C#N)c(=S)n(C2OC(CO)C(O)C(O)C2O)c1C` (stereo unspecified), the EC50 is greater than 200 µM and the IC50 was greater than 200 µM. Take `CCC1(c2ccccc2)OCC(=O)NC1=O` (stereo unspecified): the EC50 is greater than 200 µM and the concentration for half-maximal inhibition (IC50) is greater than 200 µM.

Regarding `CC12CCC(CC1=O)C2(C)CCC(N)=O` (stereo unspecified), the EC50 is greater than 200 µM and the half-maximal inhibitory concentration (IC50) was greater than 200 µM. Consider `Nc1nc(Cl)c(/C=N\O)c(NCC2(CO)CC(=O)C2)n1`, for which the EC50 is greater than 200 µM and the IC50 is 17 µM. `O=C1CCCc2ccc([N+](=O)[O-])c(O)c21`: the result was inactive. For the compound `CCC(C)C(NC(=O)C(NC(=O)C(CC(N)=O)NC(=O)CN)C(C)O)C(=O)NC(C(=O)NC(C)C(=O)NC(C(=O)NC(CCC(=O)O)C(=O)NC(CC(C)C)C(=O)NC(CC(=O)O)C(=O)NC(C(=O)NC(Cc1ccc(O)cc1)C(=O)N1CCCC1C(=O)O)C(C)O)C(C)C)C(C)C` (stereo unspecified) (H-GNTIVAVELDTYP-OH; configuration not given here), the EC50 is 30.9 µM and the IC50 was 50.1 µM. On the same counts, the results for `O=c1oc2ccccc2c(O)c1C(c1ccc(-c2ccccc2)cc1)c1c(O)c2ccccc2oc1=O` are greater than 200 µM and 35.5 µM.

Consider `NC1=NCC(CN2CCCC2)O1` (stereo unspecified), for which the EC50 is greater than 200 µM and the half-inhibitory concentration (IC50) is greater than 200 µM. As to `Cc1ccc(C(=O)/C=C/c2ccccc2Cl)cc1`, the EC50 is greater than 5.62 µM and the IC50 was greater than 5.62 µM. For `O=C(O)C1CCC(=O)N1S(=O)(=O)c1ccccc1` (stereo unspecified), the outcome was inactive. For `CCOC(=O)c1cc(C2CCN(c3ccccc3)C2=O)c(/C(O)=C/C(C)=O)[nH]1` (stereo unspecified), the EC50 is greater than 200 µM and the IC50 worked out at 5.01 µM.

For `COc1cc2c(cc1OC)NC(=O)CC(=O)N2`, the EC50 was greater than 200 µM and the IC50 was greater than 200 µM. With `C=C1OC(=O)[C@]2([C@@H](/C=C/C)C=CC(=O)[C@H]2O)[C@@H]1O`, the EC50 is greater than 200 µM and the IC50 is greater than 200 µM. Take `CN1C(=O)C2CC(=O)N(Cc3ccccc3)C(=O)C2C1=O` (stereo unspecified): the EC50 is greater than 288 µM and the IC50 was greater than 288 µM. Take `CCOc1ccc(/C=C2/C(=O)N(/C=C3/C(=O)Oc4ccccc4C3=O)C(=NC(C)=O)N2C)cc1`: the EC50 is greater than 200 µM and the IC50 is greater than 200 µM. In the case of `O=[N+]([O-])C(/C=C(\Cl)[N+](=O)[O-])=C(N1CCOCC1)N1CCOCC1`, the EC50 is greater than 200 µM and the half-maximal inhibitory concentration (IC50) came to 110 µM. In the case of `COc1ccc(N/N=C2\CCOc3ccc(C)cc3C2=O)cc1`, the EC50 is greater than 20 µM and the IC50 was 12 µM. In the case of `O=C(CC(O)CCc1ccc(O)c(O)c1)O[C@H]1Cc2c(O)cc(O)cc2O[C@H]1c1ccc(O)c(O)c1` (stereo partly specified), the EC50 is greater than 200 µM and the IC50 came to 14.1 µM. On to `Cc1c(-c2coc(-c3ccccc3)n2)c(=O)n(-c2ccccc2)n1C`, for which the EC50 is greater than 107 µM and the IC50 was greater than 107 µM.

As to `O=[N+]([O-])c1nccn1CC(O)CF` (stereo unspecified), the EC50 was greater than 468 µM and the IC50 is greater than 468 µM.

`Cc1c(C(=O)CC(=O)C(=O)Nc2ccc(Cl)cc2)[n+](=O)c2ccccc2n1[O-]`: the EC50 is greater than 12.6 µM and the IC50 is greater than 12.6 µM. `CN(C)/N=N/c1nc2c(c(=O)n(C)c(=O)n2C)n1C`: the EC50 is greater than 151 µM and the IC50 was greater than 151 µM.

Regarding `Nc1ccc2c(c1)CN1C(=O)c3ccccc3C1=N2`, the EC50 was greater than 15.1 µM and the half-inhibitory concentration (IC50) came out at 2.95 µM.

With `CC(=O)c1cccn1/C=C(\OC(=O)OC(C)(C)C)c1ccc[nH]1`, the EC50 was 155 µM and the IC50 was 162 µM. For the compound `O=[N+]([O-])c1cccc(-c2nc3ccccc3[nH]2)c1`, the result was inactive.

With `O=C(O)C1CCC(c2ccc(Cl)cc2Cl)N1` (stereo unspecified), the EC50 was greater than 200 µM and the IC50 was greater than 200 µM.

On to `C=CC[P+](CC=C)(c1ccccc1)c1ccccc1`, for which the EC50 was greater than 200 µM and the 50% inhibitory concentration (IC50) stood at 1.91 µM. `CC(=O)C(=Cc1ccc(-c2ccccc2)cc1)C(C)=O`: the EC50 was greater than 19.5 µM and the IC50 is greater than 19.5 µM. In the case of `c1ccc2sc(SCN3CCCCC3)nc2c1`, the EC50 is greater than 200 µM and the IC50 is 81.3 µM. In the case of `COc1cc(Cc2c(OC)c(OC)cc(C)c2C(=O)O)cc(OC)c1`, the EC50 was greater than 145 µM and the IC50 is greater than 145 µM. As to `Oc1cc2cccc[n+]2c2cc(Cl)ccc12`, the EC50 is greater than 200 µM and the IC50 is 91.2 µM. As to `COc1cc2c3cc1Oc1c(O)c(OC)cc4c1[C@H](Cc1ccc(cc1)Oc1cc(ccc1O)C[C@H]3N(C)CC2)N(C)CC4`, the outcome was inactive.

As for `CCn1c(=O)c2c3ccc(OC(C)=O)cc3[nH]c2c2ccc(OC(C)=O)cc21`, the EC50 is greater than 200 µM and the IC50 was found to be 26.9 µM.

With `c1ccc(C2N=NN(c3ccccc3)C2N2CCCCC2)cc1` (stereo unspecified), the result was inactive. In the case of `O=c1c2cn[nH]c2nc2scc(-c3ccc(Cl)cc3)n12`, the EC50 is greater than 200 µM and the IC50 was greater than 200 µM. For the compound `CC1OC(n2cnc3c(=O)[nH]cnc32)C(O)C(O)C1O` (stereo unspecified), the EC50 was greater than 200 µM and the half-maximal inhibitory concentration (IC50) is greater than 200 µM. `CC(=O)OCc1cc(OC(C)=O)c2cc3c(OC(C)=O)cccc3c(OC(C)=O)c2c1`: the EC50 was greater than 200 µM and the IC50 was 28.2 µM.
